Ends that are not written are not given here. Peptide text beside a SMILES is read from it. * marks the point of attachment. Biotin = O=C1N[C@H]2[C@H](CS[C@H]2CCCCC(=O)*)N1
Tests used:
Hela cells [1] = conditions: cited from earlier work
[2] = system: γ-H2AX foci in HeLa cells; experiment: IR-induced γ-H2AX focus formation, HeLa; type: cell-based, human; conditions: 10 μM peptide, 30 minutes after 6Gy IR
Source text: (§1) Error bars represent +/−1 SD, graphed are the mean of three independent experiments.
(§2) wtNIP Inhibits IR-Induced γ-H2AX and NBS1 pSer343 Focus Formation: One of the earliest responses to IR-induced DNA damage is the formation of γ-H2AX foci, which requires functional ATM (Burma et al., 2001; Furuta et al., 2003). […] Immunofluorescence microscopy was used to detect the presence of γ-H2AX foci in mock-irradiated or irradiated cells in the presence of R9, wtNIP or scNIP. […] Therefore, IR-induced γ-H2AX focus formation can be inhibited by wt-NIP.

[3] = system: NBS1 phosphorylation on serine 343 in HeLa cells; experiment: IR-induced NBS1 pSer343 focus formation, HeLa; type: cell-based, human
Source text: as §1
To further support the idea that wtNIP can inhibit ATM-mediated DNA damage pathways, IR-induced NBS1 focus formation, an event considered to be an ATM-dependent process at the sites of DSBs (Lim et al., 2000) was investigated. NBS1 foci are a result of ATM-mediated NBS1 phosphorylation on serine 343. […] The average number of foci in mock-irradiated HeLa cells was 6, 8, and 6 for R9, wtNIP, and scNIP, respectively.

HeLa cells [4] = experiment: Length of time the peptides remain in cells (degradation, immunofluorescence)
Protocol: HeLa cells were treated with 10 μM R9, wtNIP, or scNIP for one hour and harvested at indicated time points before they were analyzed by immunofluorescence microscopy staining with an […].
Immunofluorescence microscopy: Exponentially growing cultures of cells were plated on sterile, […] coverslips, and incubated for 24 hours at 37° C. in 5% CO2 humidified air before they are treated with the NIP peptides at room temperature. Coverslips were washed with PBS and fixed with 4% paraformaldehyde-0.25% Triton X-100 for 15 minutes at room temperature, blocked for 30 minutes at room temperature, and incubated with FITC-conjugated streptavidin or anti-γH2AX and phospho-NBS1 antibodies (Rockland Immunochemicals, Gilbertsville, Pa.) for 1 hour at room temperature. Coverslips were then mounted with Vectashield Elite (Vector Labs, Burlingame, Calif.) and observed with a Leica fluorescence microscope. Images were captured at 40× magnification using a Q Imaging Retiga Exi digital camera and analyzed with Image Pro-Plus 5.1 software.
Because the peptides would be used in radiation studies, the length of time the peptides remain in cells was determined to ensure that the peptides would be present throughout the DNA repair process after IR.

[5] = system: γ-H2AX foci in DU-145 cells; experiment: IR-induced γ-H2AX focus formation, DU-145; type: cell-based, human; conditions: 10 μM peptide, 6Gy
Source text: as §1, §2

HeLa cells [6] = experiment: Peptide internalization by immunofluorescence microscopy (fluorescein-conjugated streptavidin); type: cell-based, human; conditions: 10 μM for 1 h
Protocol: First, the internalization of the peptides was evaluated. Cells treated with the peptide were probed with a fluorescein-conjugated streptavidin antibody to determine the presence of the biotinylated peptides.

NBS1-ATM interaction = target: T1, NBS1-ATM interaction (Homo sapiens, UniProt Q13315); experiment: Co-immunoprecipitation of ATM with NBS1 in peptide-treated cells; type: cell-based; conditions: HeLa cells, four hours after peptide treatment, unirradiated
T1 construct: endogenous in cells; host or cells: HeLa
Protocol: HeLa cells treated with the NIP peptides were irradiated (0 or 6Gy). Immunoprecipitation was performed with a rabbit NBS1 antibody, and Western blotting was performed with monoclonal antibodies against ATM, NBS1 or MRE11.
Immunoprecipitation and Western blotting: For co-immunoprecipitation of ATM, NBS1 and MRE11, cells were lysed 1 hour in ice-cold lysis buffer, which consisted of 10 mM Tris-HCl (pH 7.5), 100 mM NaCl, 5 mM EDTA, 0.5% NP-40, 5 mM Na3VO4, 1 mM NaF, and 1 mM PMSF. After centrifugation, supernatants were incubated with indicated antibodies. After extensive washing with the lysis buffer, immunoprecipitates were analyzed by immunoblot using specific antibodies. For western blotting analysis, samples (cell lysates or immunoprecipitates) were separated on 4-12% SDS-poly-acrylamide gels, transferred to nitrocellulose membranes, and probed with various antibodies.
wtNIP Abrogated the NBS1-ATM Interaction: To investigate whether R9-conjugated NIP peptides could inhibit NBS1-ATM interactions, coimmunoprecipitation experiments were performed in cells treated with the NIP peptides. Four hours after peptide treatment, HeLa cells were harvested and subjected to immunoprecipitation using an anti-NBS1 antibody. The immunoprecipitates were then blotted with anti-ATM, NBS1, and MRE11 antibodies.

HeLa cells [7] = experiment: Colony formation assay (radiosensitivity), HeLa
Protocol: Shown in A (HeLa), C (MO59J) and D (GM9607) are the susvival curves after indicated doses of radiation. Error bars represent +/−1 SEM, graphed are the mean of three independent experiments.
Colony formation assays: To determine the radiosensitivity, the colony forming assay was incorporated. Cells were harvested with 0.125% trypsin-0.05% EDTA, pelleted and re-suspended in 1 ml fresh media with a 22 g needle to disperse clumps prior to hemocytometer counting in trypan blue. Cells were then plated at limiting dilutions in […] and allowed to adhere overnight. Cultures were treated with PBS, R9, wtNIP, or scNIP for 1 hour, and irradiated (0-6Gy). Fresh peptides were added every four hours until 24 hours after IR, when the medium was replaced with peptide-free medium. Cultures were incubated for 10-12 days, harvested and stained with 0.5% crystal violet in methanol. Colony number was determined with a dissecting microscope. A population of >50 cells was counted as one colony, and the number of colonies was expressed as a percentage of the value for untreated mock irradiated control cells. The surviving curves were plotted by linear regression analyses and the D0 value represents the radiation dose that leads to 37% of survival. To determine the radiosensitizing potential of the peptides in comparison to other small molecule inhibitors, the sensitizing enhancement ratio (SER) was calculated based on the dose of radiation required to reduce survival to 37% in the presence of scNIP or wtNIP. The following formula was used: […]
Statistics: To establish statistical significance, Student's t-test was incorporated. The data were first fit to each experimental group over a dose range of 0-6Gy. Significant differences were established at p<0.05.
FIG. 6A depicts the survival curves for HeLa cells treated with R9, wtNIP, or scNIP over a dose range of 0 to 6 Gy.

ATM = ATM (human, UniProt Q13315 2-3056); experiment: cell-based or functional assay
ATM, sequence (Q13315 other isoform, or with tags, fused parts or gaps limits assumed): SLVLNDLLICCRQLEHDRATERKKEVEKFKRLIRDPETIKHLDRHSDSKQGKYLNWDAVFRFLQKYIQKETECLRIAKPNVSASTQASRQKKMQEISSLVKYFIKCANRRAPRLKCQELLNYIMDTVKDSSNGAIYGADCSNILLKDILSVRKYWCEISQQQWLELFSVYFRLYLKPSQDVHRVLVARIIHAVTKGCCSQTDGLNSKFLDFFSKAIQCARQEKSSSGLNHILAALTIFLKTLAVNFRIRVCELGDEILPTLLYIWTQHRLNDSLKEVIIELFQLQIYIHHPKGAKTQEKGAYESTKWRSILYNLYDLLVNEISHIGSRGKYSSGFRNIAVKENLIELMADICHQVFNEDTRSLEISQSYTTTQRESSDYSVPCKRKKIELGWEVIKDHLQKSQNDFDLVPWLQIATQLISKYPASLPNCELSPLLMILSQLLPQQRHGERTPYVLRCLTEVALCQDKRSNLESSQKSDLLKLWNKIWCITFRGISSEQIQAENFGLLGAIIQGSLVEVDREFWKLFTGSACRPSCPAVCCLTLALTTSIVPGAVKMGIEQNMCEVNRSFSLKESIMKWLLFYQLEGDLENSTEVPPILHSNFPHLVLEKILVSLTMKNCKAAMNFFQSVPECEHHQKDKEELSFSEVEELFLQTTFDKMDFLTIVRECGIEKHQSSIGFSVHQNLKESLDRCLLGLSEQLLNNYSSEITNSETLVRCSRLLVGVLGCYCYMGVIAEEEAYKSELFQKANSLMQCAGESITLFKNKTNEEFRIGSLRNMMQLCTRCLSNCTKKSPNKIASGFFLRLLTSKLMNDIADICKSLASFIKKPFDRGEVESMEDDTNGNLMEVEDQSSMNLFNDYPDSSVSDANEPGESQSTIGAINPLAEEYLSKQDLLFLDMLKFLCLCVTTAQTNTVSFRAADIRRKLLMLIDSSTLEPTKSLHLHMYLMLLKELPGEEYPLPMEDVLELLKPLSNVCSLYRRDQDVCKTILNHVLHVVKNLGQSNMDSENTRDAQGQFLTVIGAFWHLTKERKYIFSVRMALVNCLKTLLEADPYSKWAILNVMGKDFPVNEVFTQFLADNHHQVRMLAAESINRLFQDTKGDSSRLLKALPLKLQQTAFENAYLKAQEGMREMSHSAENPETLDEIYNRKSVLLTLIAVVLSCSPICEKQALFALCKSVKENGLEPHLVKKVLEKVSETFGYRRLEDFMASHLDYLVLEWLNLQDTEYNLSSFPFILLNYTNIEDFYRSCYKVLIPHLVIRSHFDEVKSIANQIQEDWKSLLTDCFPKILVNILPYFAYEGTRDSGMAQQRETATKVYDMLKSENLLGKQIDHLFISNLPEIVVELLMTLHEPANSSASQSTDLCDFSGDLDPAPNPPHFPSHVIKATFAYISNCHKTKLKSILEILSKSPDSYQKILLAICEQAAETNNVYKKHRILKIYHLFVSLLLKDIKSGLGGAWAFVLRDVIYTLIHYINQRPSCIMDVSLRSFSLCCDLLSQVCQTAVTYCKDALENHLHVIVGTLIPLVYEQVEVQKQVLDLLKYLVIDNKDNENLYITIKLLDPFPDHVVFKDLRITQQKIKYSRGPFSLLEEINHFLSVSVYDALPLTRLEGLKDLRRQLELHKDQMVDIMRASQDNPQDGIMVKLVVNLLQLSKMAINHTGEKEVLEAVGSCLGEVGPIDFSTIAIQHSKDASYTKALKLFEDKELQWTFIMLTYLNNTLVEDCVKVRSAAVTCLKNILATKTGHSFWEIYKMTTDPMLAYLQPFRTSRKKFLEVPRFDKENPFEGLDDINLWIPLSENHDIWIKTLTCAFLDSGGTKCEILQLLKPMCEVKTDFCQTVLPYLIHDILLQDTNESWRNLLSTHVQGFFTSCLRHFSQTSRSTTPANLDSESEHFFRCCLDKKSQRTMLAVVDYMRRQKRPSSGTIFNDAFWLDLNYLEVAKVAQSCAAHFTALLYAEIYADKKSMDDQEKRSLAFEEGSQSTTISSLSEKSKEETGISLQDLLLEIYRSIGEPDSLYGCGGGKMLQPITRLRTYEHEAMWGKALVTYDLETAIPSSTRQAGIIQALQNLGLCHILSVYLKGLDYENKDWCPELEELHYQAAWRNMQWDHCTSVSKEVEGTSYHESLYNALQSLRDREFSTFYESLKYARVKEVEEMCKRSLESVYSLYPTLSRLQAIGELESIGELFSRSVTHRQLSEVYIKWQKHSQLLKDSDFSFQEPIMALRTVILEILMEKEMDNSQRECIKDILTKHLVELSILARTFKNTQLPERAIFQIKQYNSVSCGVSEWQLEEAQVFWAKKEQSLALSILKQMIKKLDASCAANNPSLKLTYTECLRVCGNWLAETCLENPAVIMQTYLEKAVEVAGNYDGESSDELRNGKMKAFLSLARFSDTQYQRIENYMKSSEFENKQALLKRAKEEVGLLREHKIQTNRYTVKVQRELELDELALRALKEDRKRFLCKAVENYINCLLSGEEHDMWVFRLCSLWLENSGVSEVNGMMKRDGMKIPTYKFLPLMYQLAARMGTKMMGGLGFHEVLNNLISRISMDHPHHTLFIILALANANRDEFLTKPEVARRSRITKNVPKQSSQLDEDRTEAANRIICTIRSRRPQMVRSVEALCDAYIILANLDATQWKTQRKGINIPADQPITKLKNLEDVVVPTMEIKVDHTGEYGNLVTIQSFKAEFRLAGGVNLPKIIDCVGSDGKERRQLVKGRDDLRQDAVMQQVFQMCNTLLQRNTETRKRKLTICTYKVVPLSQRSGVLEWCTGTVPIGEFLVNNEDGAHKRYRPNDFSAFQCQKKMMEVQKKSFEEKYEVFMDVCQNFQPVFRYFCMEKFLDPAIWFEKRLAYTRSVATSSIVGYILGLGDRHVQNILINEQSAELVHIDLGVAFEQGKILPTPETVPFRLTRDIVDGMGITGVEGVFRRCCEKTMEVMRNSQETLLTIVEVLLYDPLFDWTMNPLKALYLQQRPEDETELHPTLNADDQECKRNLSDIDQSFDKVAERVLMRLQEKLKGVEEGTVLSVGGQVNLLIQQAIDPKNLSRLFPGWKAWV

For `O=c1cc(-c2cccc3c2Sc2ccccc2S3)oc(N2CCOCC2)c1` [KU55933], the radiosensitivity (Hela cells [1]; Hela cells) is listed as “significant increase in radiosensitivity” and the “increase in sensitivity to etoposide” value (Hela cells [1]) is listed as at most 35.5 fold.

In the case of `CC(C)C[C@H](NC(=O)[C@H](CCC(=O)O)NC(=O)[C@H](CCC(=O)O)NC(=O)[C@H](CC(C)C)NC(=O)[C@H](CC(=O)O)NC(=O)[C@H](C)NC(=O)[C@H](CC(=O)O)NC(=O)[C@H](CO)NC(=O)[C@H](CCCNC(=N)N)NC(=O)[C@H](CCCNC(=N)N)NC(=O)[C@H](CCCNC(=N)N)NC(=O)[C@H](CCCNC(=N)N)NC(=O)[C@H](CCCNC(=N)N)NC(=O)[C@H](CCCNC(=N)N)NC(=O)[C@H](CCCNC(=N)N)NC(=O)[C@H](CCCNC(=N)N)NC(=O)[C@H](CCCNC(=N)N)NC(=O)CCCC[C@@H]1SC[C@@H]2NC(=O)N[C@@H]21)C(=O)N[C@@H](CCCCN)C(=O)O` [scNIP] (Biotin-RRRRRRRRRSDADLEELK-OH), the “average number of γ-H2AX foci/nucleus” value [2] is reported as 41 foci/nucleus, the “NBS1 pSer343 foci per nucleus” value ([3]; HeLa cells after treatment with 6-Gy IR) is reported as 31 foci per nucleus and the “average number of NBS1 pSer343 foci” value ([3]; mock-irradiated HeLa cells) is reported as 6. The “fluorescent intensity levels of peptide in cells” value (HeLa cells [4]; 8 hours) was “much weaker”, the “peptide staining in cells” value (HeLa cells [4]; 12 hours) was “much weaker cytoplasmic staining with no observed nuclear staining” and the “peptide staining in cells” value (HeLa cells [4]; 24 hours) was “no detectable presence of the peptides”. The “presence of peptides in cells” value (HeLa cells [4]; within 2 hours of treatment) was “strong distribution”, the “fluorescent intensity levels of peptide in cells” value (HeLa cells [4]; within 4 hours) was “began to decrease” and the “IR-induced γ-H2AX focus formation” value [5] was “did not affect IR-induced focus formation”. The “cellular uptake of peptide” value (HeLa cells [6]) was “significant cellular uptake of peptide”, the “localization of internalized peptide” value (HeLa cells [6]) was “cytoplasmic and nuclear compartments” and the “ATM-NBS1 association (anti-NBS1 immunoprecipitation, anti-ATM blot)” value (NBS1-ATM interaction) was “did not affect the NBS1-ATM interaction”. The “D0 (mean lethal dose required for 37% survival)” value (HeLa cells [7]) was 3.0, the “effect of peptide on clonogenic survival” value (HeLa cells [7]; 10 μM peptide) was “no significant difference between treatment groups” and the “effect on radiosensitivity / IR-induced survival” value (HeLa cells [7]; dose range 0 to 6 Gy) was “Neither R9 nor scNIP affects radiosensitivity”.

For Biotin-RRRRRRRRRKEESLADDLF [wild-type NBS1 inhibitory peptide (wtNIP)], the “SER (sensitizing enhancement ratio), DU-145” value (ATM) was 1.46, the “SER (sensitizing enhancement ratio), HeLa” value (ATM) was 1.58 and the “SER (sensitizing enhancement ratio), M059J cells (defective DNA-PKcs)” value (ATM) was 1.83. The “sensitizer enhancement ratio at 2Gy, HeLa” value (ATM) was 1.66, the “sensitizer enhancement ratio at 4Gy, HeLa” value (ATM) was 2.61 and the “sensitizer enhancement ratio at 6Gy, HeLa” value (ATM) was 3.12.

Source: patent publication US20100120679A1, “Targeting NBS1-ATM Interaction To Sensitize Cancer Cells To Radiotherapy And Chemotherapy” (SOUTHERN RESEARCH INSTITUTE, priority 2006, published 2010)
